Results from publication PMC9688225, “α-Lipoic Acid Derivatives as Allosteric Modulators for Targeting AMPA-Type Glutamate Receptors’ Gating Modules” (Cells, 2022).
pIC50: −log10 of the molar value. Where two headings read alike, the source gives them in different places.

Columns and labels:
[1] = target: T1, GluA1 AMPA receptor subunit (flip isoform) (Homo sapiens, UniProt P42261); test: Whole-cell patch-clamp electrophysiology, homomeric GluA1 expressed in HEK293 cells; assay type: cell-based
T1 construct: expressed in transfected cells; host or cells: HEK293
Method: (§1) Up to 20 μg of high-copy plasmid DNA was prepared using the QIAGEN Plasmid Mini Kit, the tubes were then centrifuged to extract the supernatant containing the plasmid DNA, ethanol was used to wash the DNA pellet, then centrifuged again and the supernatant was carefully removed as to not disturb the pellet, finally, the pellet was air-dried, and the DNA was re-dissolved in a suitable volume of buffer, (our prior study detailed the whole DNA preparation data). The flip isoform was used in all AMPAR subunits used in this investigation. AMPAR subunits were subcloned in pRK and expressed in the human embryonic kidney cells (HEK293) (The HEK293 cell line was obtained from Sigma, Schnelldorf, Germany). IPA (Integrated Patch Amplifier) recorded HEK293 cells 36–48 h after transfection using the patch-clamp method (Sutter Instruments, Novato, CA, USA). A high-speed piezo solution switcher was installed on a double-barreled glass (theta tube) to provide solutions fast, isolate receptor responses from any network influences, and preserve, as much as possible, the postsynaptic protein machinery. Thus, inhibition was measured by comparing the current recorded when glutamate alone was administered to the current observed when glutamate plus the compound of interest was delivered to the same cell. Before administering the α-LA compounds, experiments were conducted to determine the appropriate concentration to be delivered to the cells without harming them. Dichloromethane (12 µM) effect on GluA1 and GluA2 subunits was tested to ensure that it had no effect on AMPA receptor currents (Figure S8). The effect of α-LA compounds on AMPA subunits plateaued at a concentration of 12 µM because LA inhibits AMPA receptors at low concentrations and continues to inhibit them when LA concentrations are increased by 2 µM each interval, as shown in Figure S1. The concentration increased by 2 µM each time to ensure that no cells were harmed. The cells were washed for 20 s between α-LA derivatives (12 µM), and 10 mM glutamate was supplied alone after each α-LA compound to ensure cell health. Data analysis was carried out using Igor Pro7 (Wave Metrics, inc). For both desensitization (τw des) and deactivation rates (τw deact), an exponential fit to the current decline was obtained at 95% of peak to baseline current. The weighted tau (τw) was calculated as τw = (τf × af) + (τs × as), where af and as are the amplitudes of the fast (τf) and slow (τs) exponential components, respectively. Our study detailed the experimental data set.
(§2) Data are presented as mean ± standard error of the mean (SEM). The number of samples (n = 10) refers to the total number of tested HEK293 cells. Statistical differences between the groups and the wild type were examined by One Way Analysis of Variance (ANOVA), with values of p < 0.05 being considered to indicate statistical significance: (*) p < 0.05, (**) p < 0.01, (***) p < 0.001, ns, not significant. Concentration-response relationships were fitted as composite curves using GraphPad Prism version 6.01 (GraphPad Software, San Diego, CA, USA) to the Hill equation. All results were representative of at least three independent experiments.
(§3) Figure 2 Suppression of AMPA receptor currents by α-LA compounds. Graphs (a,c,e,g) present AMPA receptor currents (pA) before and after the administration of α-LA derivatives on GluA1, GluA1/2, GluA2, and GluA2/3 subunits. While (b,d,f,h) present the ratio A/AI, where A represents the current caused by 10 mM glutamate alone and AI represents the current induced by glutamate + α-LA (12 µM). The whole-cell current was measured at −60 mV, pH 7.4, and 22 °C. A one way analysis of variance (ANOVA) was performed for comparison: *** p < 0.001; ns, not significant. Ten cells were investigated for each LA compound. All values are shown as mean SEM.
(§4) Figure 3 The potency of LA compounds against AMPA receptor subunits. […]

[2] = test system: EA.hy926 endothelial cells; design: method as in PMID 18026819; conditions: 40–80 µM α-lipoic acid; cited from earlier work
[3] = target: T2, GluA2 AMPA receptor subunit (flip isoform) (Homo sapiens, UniProt P42262); test: Whole-cell patch-clamp electrophysiology, homomeric GluA2 expressed in HEK293 cells; assay type: cell-based
T2 construct: expressed in transfected cells; host or cells: HEK293
Method: as §1, §2, §3, §4

[4] = target: T3, GluA2/3 AMPA receptor subunits (flip isoform) (Homo sapiens, UniProt P42262+P42263); test: Whole-cell patch-clamp electrophysiology, heteromeric GluA2/3 expressed in HEK293 cells; assay type: cell-based
T3 construct: expressed in transfected cells; host or cells: HEK293
Method: as §1, §2, §3, §4

[5] = target: T4, GluA1/2 AMPA receptor subunits (flip isoform) (Homo sapiens, UniProt P42261+P42262); test: Whole-cell patch-clamp electrophysiology, heteromeric GluA1/2 expressed in HEK293 cells; assay type: cell-based
T4 construct: expressed in transfected cells; host or cells: HEK293
Method: as §1, §2, §3, §4

HEK293 cells = test system: HEK293 cells; design: method as in PMID 23780308; conditions: 8 µM α-lipoic acid; cited from earlier work
[6] = test system: AMPA receptor subunits (GluA1, GluA2, GluA1/2, GluA2/3); test: Whole-cell patch-clamp electrophysiology, summary over the AMPA receptor subunits in HEK293 cells; assay type: cell-based
Method: as §1, §2
The levels of inhibition of α-LA and its derivatives attracted our attention to assessing the potency of the compounds in a concentration-dependent manner. […] The concentration−inhibition curves were produced by administering glutamate alone at a concentration of 10 mM, followed by glutamate + α-LA derivatives at varying concentrations (in μM) for every recording point. Afterward, the cells were normalized back by administering glutamate alone. Since the glutamate concentration in the synaptic cleft constantly saturates the receptors, driving the response to a near maximum level, variability occurs because the maximum level changes. […]

[7] = 10 mM glutamate + 12 µM compound, −60 mV, pH 7.4, 22 °C, mean ± SEM, n = 10
[8] = 10 mM glutamate, 12 µM compound, n = 10
[9] = Hill fit, read-out: Log IC50 (converted)
[10] = whole-cell normalized peak amplitude, Hill fit, unit printed in the text, not in Table S6, read-out: IC50
[11] = all AMPA receptor subunits, 12 µM compound

T4 sequence (P42261 19-906 isoform P42261-2 limits assumed): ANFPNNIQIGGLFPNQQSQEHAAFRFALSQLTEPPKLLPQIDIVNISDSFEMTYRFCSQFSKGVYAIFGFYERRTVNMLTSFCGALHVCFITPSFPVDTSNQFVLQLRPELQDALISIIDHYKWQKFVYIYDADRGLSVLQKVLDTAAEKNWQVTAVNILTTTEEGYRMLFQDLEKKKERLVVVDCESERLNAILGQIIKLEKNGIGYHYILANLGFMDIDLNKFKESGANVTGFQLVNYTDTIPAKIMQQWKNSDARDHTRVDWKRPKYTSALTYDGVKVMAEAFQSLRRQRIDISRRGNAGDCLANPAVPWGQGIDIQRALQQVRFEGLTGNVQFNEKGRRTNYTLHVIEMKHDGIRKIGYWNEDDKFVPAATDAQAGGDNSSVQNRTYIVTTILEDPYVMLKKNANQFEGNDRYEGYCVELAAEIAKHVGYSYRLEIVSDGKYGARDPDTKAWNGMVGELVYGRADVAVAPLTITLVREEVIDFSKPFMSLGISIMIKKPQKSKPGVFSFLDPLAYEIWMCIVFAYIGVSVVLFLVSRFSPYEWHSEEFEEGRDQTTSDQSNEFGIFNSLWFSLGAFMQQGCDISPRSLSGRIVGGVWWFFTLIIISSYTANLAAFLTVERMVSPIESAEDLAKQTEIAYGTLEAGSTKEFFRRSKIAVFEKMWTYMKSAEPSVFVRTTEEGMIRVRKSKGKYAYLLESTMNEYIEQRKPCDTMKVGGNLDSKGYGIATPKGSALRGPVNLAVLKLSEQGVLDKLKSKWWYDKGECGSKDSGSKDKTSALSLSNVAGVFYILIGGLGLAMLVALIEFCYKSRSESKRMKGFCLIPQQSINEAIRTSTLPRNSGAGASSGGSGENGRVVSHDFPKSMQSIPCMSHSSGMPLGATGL
T4 sequence (P42262 25-883 isoform P42262-2 limits assumed): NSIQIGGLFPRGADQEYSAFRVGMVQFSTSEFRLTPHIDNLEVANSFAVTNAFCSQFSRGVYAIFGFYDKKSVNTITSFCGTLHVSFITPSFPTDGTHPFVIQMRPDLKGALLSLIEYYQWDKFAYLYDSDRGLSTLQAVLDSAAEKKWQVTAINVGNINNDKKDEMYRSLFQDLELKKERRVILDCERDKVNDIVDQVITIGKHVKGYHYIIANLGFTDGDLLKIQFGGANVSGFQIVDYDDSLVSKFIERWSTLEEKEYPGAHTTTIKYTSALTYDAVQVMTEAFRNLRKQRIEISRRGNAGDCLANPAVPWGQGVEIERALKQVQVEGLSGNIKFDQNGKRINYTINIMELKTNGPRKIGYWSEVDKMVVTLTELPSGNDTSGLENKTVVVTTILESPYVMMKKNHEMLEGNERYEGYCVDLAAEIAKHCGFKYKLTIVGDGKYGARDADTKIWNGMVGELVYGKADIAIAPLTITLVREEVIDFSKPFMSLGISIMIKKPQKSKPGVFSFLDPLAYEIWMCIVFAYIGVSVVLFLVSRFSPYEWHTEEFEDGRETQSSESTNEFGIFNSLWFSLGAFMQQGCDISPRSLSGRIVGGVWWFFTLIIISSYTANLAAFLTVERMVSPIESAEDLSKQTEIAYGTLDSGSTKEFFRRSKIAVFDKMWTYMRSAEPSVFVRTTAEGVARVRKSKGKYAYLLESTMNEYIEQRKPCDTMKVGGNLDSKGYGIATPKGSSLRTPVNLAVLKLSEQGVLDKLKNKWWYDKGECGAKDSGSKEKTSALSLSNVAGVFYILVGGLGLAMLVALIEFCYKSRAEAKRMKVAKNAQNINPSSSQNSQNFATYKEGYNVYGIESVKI
T1 sequence (P42261 19-906 isoform P42261-2 limits assumed): as the sequence (P42261 19-906 isoform P42261-2 limits assumed) above
T2 sequence (P42262 25-883 isoform P42262-2 limits assumed): as the sequence (P42262 25-883 isoform P42262-2 limits assumed) above
T3 sequence (P42262 25-883 isoform P42262-2 limits assumed): as above
T3 sequence (P42263 29-894 isoform P42263-2 limits assumed): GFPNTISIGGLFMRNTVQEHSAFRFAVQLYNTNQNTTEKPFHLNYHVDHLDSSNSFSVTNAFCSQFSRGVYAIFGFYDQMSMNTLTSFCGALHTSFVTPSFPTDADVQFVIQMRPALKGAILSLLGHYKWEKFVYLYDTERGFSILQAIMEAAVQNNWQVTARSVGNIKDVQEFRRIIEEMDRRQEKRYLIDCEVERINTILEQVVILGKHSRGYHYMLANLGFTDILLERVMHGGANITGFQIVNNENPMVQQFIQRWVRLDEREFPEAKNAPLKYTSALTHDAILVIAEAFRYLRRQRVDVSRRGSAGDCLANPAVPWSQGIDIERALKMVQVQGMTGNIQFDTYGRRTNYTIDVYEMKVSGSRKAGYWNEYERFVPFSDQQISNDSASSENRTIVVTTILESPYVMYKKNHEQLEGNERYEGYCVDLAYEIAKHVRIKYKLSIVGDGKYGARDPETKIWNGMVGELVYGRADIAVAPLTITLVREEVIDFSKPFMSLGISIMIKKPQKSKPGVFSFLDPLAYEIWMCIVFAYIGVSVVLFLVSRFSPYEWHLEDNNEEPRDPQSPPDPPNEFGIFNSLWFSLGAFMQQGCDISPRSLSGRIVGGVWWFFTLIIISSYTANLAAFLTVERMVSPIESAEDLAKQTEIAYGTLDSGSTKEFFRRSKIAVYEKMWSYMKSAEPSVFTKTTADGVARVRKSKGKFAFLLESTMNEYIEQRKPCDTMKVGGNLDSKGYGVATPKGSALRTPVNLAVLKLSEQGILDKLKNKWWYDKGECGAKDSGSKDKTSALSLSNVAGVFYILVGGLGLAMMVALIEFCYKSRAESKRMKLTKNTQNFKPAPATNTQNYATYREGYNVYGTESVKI

## O=C(O)CCCCC1CCSS1 (stereo not drawn) [α-LA, alpha-Lipoic acid, reference compound]
[1]; [7]
  Amplitude (glutamate + compound): 102±14.0 pA
[1]; [8]
  A/AI (current with glutamate alone / current with glutamate + compound): 9.26±0.6
[1]; [9]
  IC50: 3.55 µM
[1]; glutamate + 12 µM compound, glutamate alone 2.2±0.1 ms
  t deact (weighted deactivation time constant): 9.1 ± 0.6 ms
[1]; glutamate + 12 µM compound, glutamate alone 2.3±0.1 ms
  t des (weighted desensitization time constant): 1.3 ± 0.1 ms
[1]; [10]
  pIC50: 5.45
[2]
  toxicity to the cells: without causing toxicity
[3]; [7]
  Amplitude (glutamate + compound): 136±22 pA
[3]; [8]
  A/AI (current with glutamate alone / current with glutamate + compound): 9.09±0.8
[3]; [9]
  IC50: 3.89 µM
[3]; glutamate + 12 µM compound, glutamate alone 2.4±0.1 ms
  t deact (weighted deactivation time constant): 8.8 ± 0.5 ms
[3]; glutamate + 12 µM compound, glutamate alone 2.6±0.1 ms
  t des (weighted desensitization time constant): 1.5 ± 0.04 ms
[3]; [10]
  pIC50: 5.41
[4]; [7]
  Amplitude (glutamate + compound): 60±11.0 pA
[4]; [8]
  A/AI (current with glutamate alone / current with glutamate + compound): 8.93±1.0
[4]; [9]
  IC50: 3.98 µM
[4]; glutamate + 12 µM compound, glutamate alone 2.4±0.3 ms
  t deact (weighted deactivation time constant): 8.6 ± 0.7 ms
[4]; glutamate + 12 µM compound, glutamate alone 2.7±0.3 ms
  t des (weighted desensitization time constant): 1.6 ± 0.09 ms
[4]; [10]
  pIC50: 5.40
[5]; [7]
  Amplitude (glutamate + compound): 69±10.0 pA
[5]; [8]
  A/AI (current with glutamate alone / current with glutamate + compound): 9.13±0.9
[5]; [9]
  IC50: 3.89 µM
[5]; glutamate + 12 µM compound, glutamate alone 2.5±0.3 ms
  t deact (weighted deactivation time constant): 8.9 ± 0.5 ms
[5]; glutamate + 12 µM compound, glutamate alone 5.3±0.4 ms
  t des (weighted desensitization time constant): 3.3 ± 0.3 ms
[5]; [10]
  pIC50: 5.41
HEK293 cells
  harm to the cells: without noticing any harm
[6]; [11]
  increase of the rate of AMPA receptor deactivation (τw deact): about 4 fold
  reduction in the rate of desensitization (τw des): 2 fold
[6]; all AMPA receptor subunits, glutamate alone vs glutamate + compound
  increase of the ratio A/AI: 9 fold
[6]; over GluA1, GluA1/2, GluA2, GluA2/3, read-out: approximate IC50 against AMPA receptor subunits
  pIC50: 5.40 to 5.46
